Experimental data: ChEMBL document CHEMBL5465560, “Selectivity Literature for EUbOPEN Chemogenomic Library” (2024)
Blank lines part the entries; values can stand above or below the compound they belong to.

Assays:
[1] = biological target: Cyclin-dependent kinase 9 (Homo sapiens, UniProt P50750); settings: at 10 µM
[2] = biological target: T1, Cyclin-dependent kinase-like 5 (Homo sapiens) (UniProt O76039); test: Selectivity interaction (Ambit KINOMEscan and KiNATiv profiling in Jurkat cells) EUB0000090b CDKL5; format: cell-based; settings: at 1 µM
T1 sequence (whole entry): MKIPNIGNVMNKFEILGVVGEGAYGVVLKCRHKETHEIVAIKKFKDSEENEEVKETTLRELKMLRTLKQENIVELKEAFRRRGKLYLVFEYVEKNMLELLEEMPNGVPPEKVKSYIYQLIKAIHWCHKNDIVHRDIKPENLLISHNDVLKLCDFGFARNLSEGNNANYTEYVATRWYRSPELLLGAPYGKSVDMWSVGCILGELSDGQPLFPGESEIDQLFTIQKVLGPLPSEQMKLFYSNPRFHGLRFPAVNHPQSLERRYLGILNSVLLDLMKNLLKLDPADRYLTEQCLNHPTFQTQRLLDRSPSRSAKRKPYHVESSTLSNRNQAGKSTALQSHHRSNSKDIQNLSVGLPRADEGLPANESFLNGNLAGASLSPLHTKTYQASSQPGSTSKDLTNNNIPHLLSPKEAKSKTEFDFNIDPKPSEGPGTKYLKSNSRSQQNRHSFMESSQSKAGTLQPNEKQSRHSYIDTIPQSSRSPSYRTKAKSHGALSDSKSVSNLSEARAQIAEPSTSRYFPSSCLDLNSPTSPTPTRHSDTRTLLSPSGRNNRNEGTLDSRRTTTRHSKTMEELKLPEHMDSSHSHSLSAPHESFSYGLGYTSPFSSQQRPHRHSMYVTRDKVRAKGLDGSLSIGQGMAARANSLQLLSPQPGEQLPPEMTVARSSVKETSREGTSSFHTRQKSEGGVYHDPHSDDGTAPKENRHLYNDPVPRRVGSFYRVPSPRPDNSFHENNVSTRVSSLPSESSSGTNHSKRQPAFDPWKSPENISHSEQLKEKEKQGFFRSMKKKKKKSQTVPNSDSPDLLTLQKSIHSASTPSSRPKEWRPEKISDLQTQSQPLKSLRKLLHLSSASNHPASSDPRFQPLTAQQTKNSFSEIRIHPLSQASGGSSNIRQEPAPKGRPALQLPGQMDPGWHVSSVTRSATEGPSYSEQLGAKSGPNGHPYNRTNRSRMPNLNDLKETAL

[3] = biological target: Cyclin-dependent kinase 16 (Homo sapiens) (UniProt Q00536); test: Selectivity interaction (ActivX KiNativ screen (kinase selectivity in THP-1 cell lysates)) EUB0000639a CDK16; format: subcellular; settings: lysate, at 1 µM
Sequence of Cyclin-dependent kinase 16 (Homo sapiens) (Q00536 whole entry): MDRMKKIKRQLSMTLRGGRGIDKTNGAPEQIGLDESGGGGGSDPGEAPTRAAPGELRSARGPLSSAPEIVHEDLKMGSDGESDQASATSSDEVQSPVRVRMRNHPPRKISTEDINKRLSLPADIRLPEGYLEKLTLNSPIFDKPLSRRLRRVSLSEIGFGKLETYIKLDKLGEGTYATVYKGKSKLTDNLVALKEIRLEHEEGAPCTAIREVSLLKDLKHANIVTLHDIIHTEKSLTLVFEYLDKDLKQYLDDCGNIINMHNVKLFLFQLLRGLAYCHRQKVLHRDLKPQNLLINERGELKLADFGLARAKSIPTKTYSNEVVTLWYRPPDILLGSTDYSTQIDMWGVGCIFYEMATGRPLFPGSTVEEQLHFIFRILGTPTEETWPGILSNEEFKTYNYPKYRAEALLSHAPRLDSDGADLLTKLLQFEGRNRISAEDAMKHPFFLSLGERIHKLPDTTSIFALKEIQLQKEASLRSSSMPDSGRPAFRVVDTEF

[4] = biological target: Fibroblast growth factor receptor 3 (Homo sapiens, UniProt P22607); test: Selectivity interaction (Kinase panel (Invitrogen)) EUB0000639a FGFR3; settings: at 200 nM
Sequence of Fibroblast growth factor receptor 3 (P22607 23-806 limits assumed): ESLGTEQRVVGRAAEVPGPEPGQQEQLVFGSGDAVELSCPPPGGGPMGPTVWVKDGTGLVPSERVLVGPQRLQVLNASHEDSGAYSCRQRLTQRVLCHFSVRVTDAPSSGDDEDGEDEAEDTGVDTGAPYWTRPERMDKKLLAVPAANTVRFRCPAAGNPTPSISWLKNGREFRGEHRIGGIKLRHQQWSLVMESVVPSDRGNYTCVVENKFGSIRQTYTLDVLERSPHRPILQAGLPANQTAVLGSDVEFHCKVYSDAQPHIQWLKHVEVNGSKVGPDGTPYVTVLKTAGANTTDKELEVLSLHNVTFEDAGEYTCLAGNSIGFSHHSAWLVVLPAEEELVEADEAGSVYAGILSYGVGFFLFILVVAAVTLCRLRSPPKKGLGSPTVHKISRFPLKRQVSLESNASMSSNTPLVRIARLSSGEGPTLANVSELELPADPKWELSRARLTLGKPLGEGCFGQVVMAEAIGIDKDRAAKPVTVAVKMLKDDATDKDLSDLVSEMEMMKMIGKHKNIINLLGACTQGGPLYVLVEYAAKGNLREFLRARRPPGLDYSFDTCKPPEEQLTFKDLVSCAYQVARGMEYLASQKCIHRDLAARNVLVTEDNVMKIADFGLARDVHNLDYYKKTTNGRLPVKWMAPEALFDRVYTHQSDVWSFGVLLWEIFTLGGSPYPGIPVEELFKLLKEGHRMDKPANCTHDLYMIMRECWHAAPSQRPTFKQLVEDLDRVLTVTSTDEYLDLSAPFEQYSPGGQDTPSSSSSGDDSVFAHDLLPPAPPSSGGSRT

[5] = biological target: STE20/SPS1-related proline-alanine-rich protein kinase (Homo sapiens) (UniProt Q9UEW8); test: Selectivity interaction (KinomeScan (DiscoverX)) EUB0000695a STK39; settings: at 100 nM
[6] = biological target: Dual specificity protein kinase CLK2 (Homo sapiens, UniProt P49760); settings: at 10 µM
Sequence of Dual specificity protein kinase CLK2 (P49760 whole entry, looked up): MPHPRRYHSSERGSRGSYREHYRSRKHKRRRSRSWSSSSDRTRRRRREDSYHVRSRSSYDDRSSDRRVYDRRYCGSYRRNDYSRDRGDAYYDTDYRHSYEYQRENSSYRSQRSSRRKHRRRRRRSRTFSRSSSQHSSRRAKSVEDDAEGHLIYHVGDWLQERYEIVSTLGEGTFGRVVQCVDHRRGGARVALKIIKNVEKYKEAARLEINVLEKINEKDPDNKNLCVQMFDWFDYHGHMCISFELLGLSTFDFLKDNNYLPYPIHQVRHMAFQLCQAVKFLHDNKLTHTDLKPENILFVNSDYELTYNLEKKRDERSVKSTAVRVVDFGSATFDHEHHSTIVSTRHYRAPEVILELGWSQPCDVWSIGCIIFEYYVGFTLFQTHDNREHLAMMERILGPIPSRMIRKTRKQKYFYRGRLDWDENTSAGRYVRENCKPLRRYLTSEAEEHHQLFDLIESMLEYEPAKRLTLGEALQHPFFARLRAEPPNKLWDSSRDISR

[7] = biological target: Activin receptor type-2A (Homo sapiens) (UniProt P27037); settings: at 10 µM
Sequence of Activin receptor type-2A (Homo sapiens) (P27037 whole entry): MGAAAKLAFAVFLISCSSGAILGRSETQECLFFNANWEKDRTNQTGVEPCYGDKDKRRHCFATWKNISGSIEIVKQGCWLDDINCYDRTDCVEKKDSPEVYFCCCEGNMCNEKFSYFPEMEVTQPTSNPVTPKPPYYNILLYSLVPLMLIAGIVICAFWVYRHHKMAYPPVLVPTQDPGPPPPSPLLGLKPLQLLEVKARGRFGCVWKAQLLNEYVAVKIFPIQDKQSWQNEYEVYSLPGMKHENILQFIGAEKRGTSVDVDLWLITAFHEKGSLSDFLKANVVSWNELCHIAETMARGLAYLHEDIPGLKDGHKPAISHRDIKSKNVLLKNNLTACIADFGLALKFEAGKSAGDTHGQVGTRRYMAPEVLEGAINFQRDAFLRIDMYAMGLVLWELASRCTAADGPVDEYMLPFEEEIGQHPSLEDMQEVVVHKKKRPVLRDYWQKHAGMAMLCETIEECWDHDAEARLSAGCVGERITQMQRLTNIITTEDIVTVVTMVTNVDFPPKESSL

[8] = biological target: Kappa-type opioid receptor (Homo sapiens, UniProt P41145); test: Selectivity interaction (Panel of non-epigenetic targets (kinases, GPCRs, ion channels, and transporters, Eurofins) ) EUB0000271b OPRK1; settings: at 1 µM
Sequence of Kappa-type opioid receptor (P41145 whole entry): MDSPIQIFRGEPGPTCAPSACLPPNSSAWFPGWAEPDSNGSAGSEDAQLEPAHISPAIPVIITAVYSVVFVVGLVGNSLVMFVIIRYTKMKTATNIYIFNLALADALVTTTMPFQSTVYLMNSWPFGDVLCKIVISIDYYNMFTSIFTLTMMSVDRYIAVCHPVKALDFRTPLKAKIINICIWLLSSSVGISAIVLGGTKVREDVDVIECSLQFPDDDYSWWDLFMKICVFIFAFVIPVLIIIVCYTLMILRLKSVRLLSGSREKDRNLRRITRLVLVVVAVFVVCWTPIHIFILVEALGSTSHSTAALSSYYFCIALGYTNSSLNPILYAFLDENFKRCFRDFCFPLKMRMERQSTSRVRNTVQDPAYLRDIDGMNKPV

[9] = biological target: Dual specificity tyrosine-phosphorylation-regulated kinase 1B (Homo sapiens, UniProt Q9Y463); test: Selectivity interaction (KinomeScan (DiscoverX)) EUB0000229b DYRK1B; settings: at 10 µM
Sequence of Dual specificity tyrosine-phosphorylation-regulated kinase 1B (Q9Y463 whole entry, looked up): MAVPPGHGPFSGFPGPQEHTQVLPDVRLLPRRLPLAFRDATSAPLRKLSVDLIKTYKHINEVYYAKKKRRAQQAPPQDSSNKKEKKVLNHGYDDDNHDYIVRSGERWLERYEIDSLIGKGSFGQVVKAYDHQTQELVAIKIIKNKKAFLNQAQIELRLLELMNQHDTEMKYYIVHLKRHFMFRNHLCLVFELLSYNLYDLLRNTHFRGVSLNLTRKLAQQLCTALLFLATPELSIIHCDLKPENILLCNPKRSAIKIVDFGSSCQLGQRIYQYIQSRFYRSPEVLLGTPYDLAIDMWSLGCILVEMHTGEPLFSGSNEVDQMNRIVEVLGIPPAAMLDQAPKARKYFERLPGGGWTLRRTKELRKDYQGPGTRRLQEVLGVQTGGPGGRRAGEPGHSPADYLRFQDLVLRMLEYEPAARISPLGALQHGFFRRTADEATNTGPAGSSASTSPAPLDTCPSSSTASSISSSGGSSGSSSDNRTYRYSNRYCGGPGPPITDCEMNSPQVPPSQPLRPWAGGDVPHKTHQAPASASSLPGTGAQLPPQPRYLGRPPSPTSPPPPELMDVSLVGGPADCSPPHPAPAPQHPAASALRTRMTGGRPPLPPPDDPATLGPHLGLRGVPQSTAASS

[10] = biological target: T2, Serine/threonine-protein kinase TNNI3K (Homo sapiens) (UniProt Q59H18); test: Selectivity interaction (KinomeScan (DiscoverX)) EUB0000092b TNNI3K; settings: at 10 µM
T2 sequence (whole entry): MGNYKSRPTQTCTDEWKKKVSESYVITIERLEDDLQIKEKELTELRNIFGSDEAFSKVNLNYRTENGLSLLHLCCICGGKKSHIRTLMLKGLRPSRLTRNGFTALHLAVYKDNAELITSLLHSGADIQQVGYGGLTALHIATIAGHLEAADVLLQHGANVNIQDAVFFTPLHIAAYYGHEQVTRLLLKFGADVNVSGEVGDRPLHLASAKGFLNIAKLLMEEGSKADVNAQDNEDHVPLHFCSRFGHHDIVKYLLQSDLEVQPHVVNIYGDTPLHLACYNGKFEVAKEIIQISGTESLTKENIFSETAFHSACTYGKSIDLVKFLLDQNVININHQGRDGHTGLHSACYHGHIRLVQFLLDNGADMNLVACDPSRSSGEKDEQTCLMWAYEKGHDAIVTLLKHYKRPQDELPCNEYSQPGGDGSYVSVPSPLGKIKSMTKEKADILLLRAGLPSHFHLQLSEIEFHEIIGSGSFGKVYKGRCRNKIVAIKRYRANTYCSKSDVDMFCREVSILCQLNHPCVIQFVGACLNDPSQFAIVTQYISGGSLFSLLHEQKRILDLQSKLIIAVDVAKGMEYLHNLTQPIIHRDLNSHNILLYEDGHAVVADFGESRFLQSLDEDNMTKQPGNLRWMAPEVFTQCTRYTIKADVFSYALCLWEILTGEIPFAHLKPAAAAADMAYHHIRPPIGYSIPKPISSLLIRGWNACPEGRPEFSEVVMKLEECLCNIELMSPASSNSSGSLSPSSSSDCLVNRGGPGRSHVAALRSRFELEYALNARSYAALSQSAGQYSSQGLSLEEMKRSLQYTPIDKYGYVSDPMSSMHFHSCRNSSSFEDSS

[11] = biological target: T3, Dual specificity mitogen-activated protein kinase kinase 7 (Homo sapiens) (UniProt O14733); test: Selectivity interaction (KinomeScan (DiscoverX)) EUB0000092b MAP2K7; settings: at 10 µM
T3 sequence (whole entry): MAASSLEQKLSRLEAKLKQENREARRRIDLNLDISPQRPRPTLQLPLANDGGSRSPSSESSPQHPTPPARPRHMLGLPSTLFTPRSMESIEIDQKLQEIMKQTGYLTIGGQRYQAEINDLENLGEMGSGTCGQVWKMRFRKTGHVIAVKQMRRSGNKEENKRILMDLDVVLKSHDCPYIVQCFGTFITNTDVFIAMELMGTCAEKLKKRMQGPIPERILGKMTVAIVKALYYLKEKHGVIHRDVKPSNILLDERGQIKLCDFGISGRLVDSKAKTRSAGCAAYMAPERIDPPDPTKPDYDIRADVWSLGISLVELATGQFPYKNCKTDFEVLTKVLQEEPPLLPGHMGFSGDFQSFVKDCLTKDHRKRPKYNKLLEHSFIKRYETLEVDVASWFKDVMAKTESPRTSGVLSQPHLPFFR

[12] = biological target: Mitogen-activated protein kinase kinase kinase 10 (Homo sapiens) (UniProt Q02779); test: Selectivity interaction (KinomeScan (DiscoverX)) EUB0000092b MAP3K10; settings: at 10 µM
Sequence of Mitogen-activated protein kinase kinase kinase 10 (Homo sapiens) (Q02779 whole entry, looked up): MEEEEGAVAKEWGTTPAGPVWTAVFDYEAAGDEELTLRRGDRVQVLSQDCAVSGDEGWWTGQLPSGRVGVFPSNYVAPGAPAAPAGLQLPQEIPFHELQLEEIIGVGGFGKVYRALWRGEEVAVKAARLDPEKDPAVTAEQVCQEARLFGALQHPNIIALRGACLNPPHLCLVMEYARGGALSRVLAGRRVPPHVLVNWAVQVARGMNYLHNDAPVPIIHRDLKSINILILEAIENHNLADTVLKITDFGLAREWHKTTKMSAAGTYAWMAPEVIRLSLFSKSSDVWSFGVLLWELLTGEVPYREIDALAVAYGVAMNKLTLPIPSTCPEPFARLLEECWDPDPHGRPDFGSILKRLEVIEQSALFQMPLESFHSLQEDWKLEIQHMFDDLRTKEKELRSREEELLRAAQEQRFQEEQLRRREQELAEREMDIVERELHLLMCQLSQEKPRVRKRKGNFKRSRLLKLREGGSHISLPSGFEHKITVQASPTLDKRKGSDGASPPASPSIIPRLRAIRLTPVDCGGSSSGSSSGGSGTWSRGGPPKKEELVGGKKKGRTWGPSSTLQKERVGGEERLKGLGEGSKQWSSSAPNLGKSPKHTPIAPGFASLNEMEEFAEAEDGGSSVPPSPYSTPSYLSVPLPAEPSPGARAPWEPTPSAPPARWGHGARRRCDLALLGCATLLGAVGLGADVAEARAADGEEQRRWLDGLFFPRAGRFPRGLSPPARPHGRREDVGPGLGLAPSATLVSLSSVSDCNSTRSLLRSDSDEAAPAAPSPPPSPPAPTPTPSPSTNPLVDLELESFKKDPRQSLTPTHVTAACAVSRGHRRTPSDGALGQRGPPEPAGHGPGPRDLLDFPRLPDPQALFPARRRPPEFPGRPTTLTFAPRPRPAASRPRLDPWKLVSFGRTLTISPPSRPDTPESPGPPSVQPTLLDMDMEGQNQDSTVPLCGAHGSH

Sequence of Cyclin-dependent kinase 9 (P50750 whole entry): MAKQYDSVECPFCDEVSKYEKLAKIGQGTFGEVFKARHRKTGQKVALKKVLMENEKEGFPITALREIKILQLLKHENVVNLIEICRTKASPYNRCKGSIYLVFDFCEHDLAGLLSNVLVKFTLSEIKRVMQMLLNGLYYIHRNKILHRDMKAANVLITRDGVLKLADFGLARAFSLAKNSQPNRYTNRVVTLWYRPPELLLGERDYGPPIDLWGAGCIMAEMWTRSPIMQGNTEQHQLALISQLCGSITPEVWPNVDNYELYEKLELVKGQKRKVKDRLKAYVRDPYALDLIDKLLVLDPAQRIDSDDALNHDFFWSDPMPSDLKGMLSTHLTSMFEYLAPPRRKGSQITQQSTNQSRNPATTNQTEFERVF

SMILES: Cc1cc([C@@H](C)Nc2ccccc2C(=O)O)c2nc(N3CCOCC3)cc(=O)n2c1 [AZD-6482]
% of control [1]: 100%

SMILES: CN(C)C/C=C/C(=O)Nc1ccc(C(=O)N2CCCC(Nc3ncc(Cl)c(-c4c[nH]c5ccccc45)n3)C2)cc1 (configuration not stated)
% of control [2]: 100%

% of inhibition [3]: 7.7%
% of inhibition [4]: -0.438%
SMILES: CC[C@@H]1[C@H](F)C(=O)N[C@@H]1COc1nccc2cc(C(N)=O)c(OC)cc12 [ZIMLOVISERTIB]

SMILES: Cc1cc(F)c(C(=O)Nc2cccc(-c3nncn3C(C)C)n2)cc1-n1cnc(C2CC2)c1
% of control [5]: 79%

% of control [6]: 100%
% of control [7]: 100%
SMILES: CCN(CC)CCCCNc1ncc2cc(-c3cc(OC)cc(OC)c3)c(NC(=O)NC(C)(C)C)nc2n1

SMILES: Cc1cc(C)cc([C@@H]2c3cc(C)ccc3NC(=O)CN2C(=O)c2ccc(Br)s2)c1
% of inhibition [8]: 20%

SMILES: COc1cc(N(C)c2ccnc3ccc(C(F)(F)F)cc23)cc(OC)c1OC
% binding [9]: 77%

SMILES: CCC(=O)N1CCN(c2ccc(-n3c(=O)ccc4cnc5ccc(-c6cnc7ccccc7c6)cc5c43)cc2C(F)(F)F)CC1
% of control [10]: 66%
% of control [11]: 100%
% of control [12]: 99%
